Test results taken from US20190110476A1, “NOVEL ISOTHIAZOLAMIDES, PROCESSES FOR THEIR PREPARATION AND THEIR USE AS FUNGICIDES” (priority 2014, published 2019).
Marks after values point to notes of the source that are not given here.

Assay: Measurement of LogP values by HPLC on reversed phase columns (EEC directive 79/831 Annex V.A8)
Assay type: physicochemical
Method: The abbreviations and numerations of the substituent positions used in the context of the present invention and in the following Tables are explained in detail in the section Examples hereinafter. Also, the LogP values indicated in the following Tables are explained in detail in the section Examples hereinafter. In case LogP values for different diastereoisomers of a specific compound are […], said LogP values are […] by a “+”. […] Measurement of LogP values was performed according to EEC directive 79/831 Annex V.A8 by HPLC (High Performance Liquid Chromatography) on reversed phase columns with the following methods: […] Lambda-max-values were determined using UV-spectra from 200 nm to 400 nm and the peak values of the chromatographic signals

Row | Structure (SMILES) | LogP
1 | C[C@H](NC(=O)c1snc(N)c1Cl)C1CCCCC1 [I-003] | 2.50[a]
2 | Nc1cc(C(=O)NCC2CCCCC2)sn1 [I-005] | 1.92[a]
3 | C[C@H](NC(=O)c1cc(N)ns1)C1CCCCC1 [I-006] | 2.09[a]
4 | Nc1cc(C(=O)NC2CCCCC2)sn1 [I-007] | 1.49[a]
5 | Nc1cc(C(=O)NCc2ccccc2)sn1 [I-008] | 1.32[a]
6 | Nc1nsc(C(=O)NCC2CCCOC2)c1Cl (centres unmarked) [I-010] | 1.07[a]
7 | Nc1nsc(C(=O)NCC2CCOC2)c1Cl (centres unmarked) [I-011] | 0.73[a]
8 | Nc1nsc(C(=O)NCC2CCOCC2)c1Cl [I-012] | 0.90[a]
9 | Nc1nsc(C(=O)NCC2CCCO2)c1Cl (centres unmarked) [I-013] | 1.02[a]
10 | Nc1nsc(C(=O)NCC2CCCCO2)c1Cl (centres unmarked) [I-014] | 1.47[a]
11 | Nc1cc(C(=O)NCc2ccc(Cl)cc2)sn1 [I-028] | 1.75[a]
12 | Nc1cc(C(=O)NCc2ccc(F)cc2)sn1 [I-029] | 1.27[a]
13 | C[C@H](NC(=O)c1snc(NCc2ccccc2)c1Cl)C1CCCCC1 [I-040] | 4.74[a]
14 | Cc1c(N)nsc1C(=O)NCC1CCCCC1 [I-042] | 2.01[a]
15 | COc1ccc(CNc2nsc(C(=O)NCC3CCCC3)c2Cl)cc1 [I-044] | 4.04[a]
16 | COc1ccc(CNc2nsc(C(=O)NCC3CCCCCC3)c2Cl)cc1 [I-045] | 4.69[a]
17 | O=C(NC1CCCC2CCCCC21)c1snc(NCc2ccccc2)c1Cl (centres unmarked) [I-046] | 5.23[a]
18 | O=C(NC1CCCC2CCCCC21)c1snc(NCc2ccccc2)c1NCc1ccccc1 (centres unmarked) [I-047] | 5.65[a]
19 | COc1ccc(CNC(=O)c2cc(N)ns2)cc1 [I-052] | 1.28[a]
20 | Nc1nsc(C(=O)N(Cc2ccc(F)cc2F)C2CC2)c1Cl [I-053] | 2.62[a]

Row | Structure (SMILES) | LogP
21 | Nc1nsc(C(=O)NCC2CCCCCC2)c1Cl [I-054] | 2.86[a]
22 | COc1ccc(CNc2nsc(C(=O)NCC3CCCCC3(C)C)c2Cl)cc1 (centres unmarked) [I-056] | 4.95[a]
23 | C[C@H](NC(=O)c1snc(NC2CC2)c1Cl)C1CCCCC1 [I-061] | 3.75[a]
24 | C#CCNc1nsc(C(=O)N[C@@H](C)C2CCCCC2)c1Cl [I-062] | 3.56[a]
25 | C[C@H](NC(=O)c1snc(Nc2ccc(F)cc2)c1Cl)C1CCCCC1 [I-063] | 4.81[a]
26 | C[C@H](NC(=O)c1snc(Nc2ccccc2)c1Cl)C1CCCCC1 [I-064] | 4.78[a]
27 | COc1ccc(CNc2nsc(C(=O)N[C@@H](C)C3CCCCC3)c2Cl)cc1 [I-065] | 4.66[a]
28 | C=CCNc1nsc(C(=O)N[C@@H](C)C2CCCCC2)c1Cl [I-066] | 4.02[a]
29 | COc1ccc(Nc2nsc(C(=O)N[C@@H](C)C3CCCCC3)c2Cl)cc1 [I-068] | 4.59[a]
30 | COc1ccc(CNc2nsc(C(=O)N[C@H](C)C3CCCCC3)c2Cl)cc1 [I-070] | 4.56[a]
31 | COc1ccc(CN(C(=O)C(=O)N[C@H](C)C2CCCCC2)c2nsc(C(=O)N[C@H](C)C3CCCCC3)c2Cl)cc1 [I-072] | 4.54[a]
32 | Nc1nsc(C(=O)NCC2CCCC2)c1Cl [I-073] | 2.15[a]
33 | COc1ccc(CNc2nsc(C(=O)NC3CCCCC3(C)C)c2Cl)cc1 (centres unmarked) [I-075] | 4.64[a]
34 | COc1ccc(CNc2nsc(C(=O)NCC3C(C)CCCC3(C)C)c2Cl)cc1 (centres unmarked) [I-076] | 5.48[a]
35 | C[C@@H](NC(=O)c1snc(N)c1Cl)C1CCCCC1 [I-077] | 2.78[a]
36 | COc1ccc(CNc2nsc(C(=O)NCC3CC=CCC3)c2Cl)cc1 (centres unmarked) [I-078] | 3.90[a]
37 | COc1ccc(CNc2nsc(C(=O)NCC3(C)CCCCC3)c2Cl)cc1 [I-079] | 4.69[a]
38 | CC1(C)CCCCC1CNC(=O)c1snc(N)c1Cl (centres unmarked) [I-080] | 3.05[a]
39 | CC1CCCC(C)(C)C1CN(C(=O)c1snc(N)c1Cl)C1CC1 (centres unmarked) [I-081] | 4.08[a]
40 | CC1(C)CCCCC1NC(=O)c1snc(N)c1Cl (centres unmarked) [I-082] | 2.66[a]

Row | Structure (SMILES) | LogP
41 | CC1CCCC(C)(C)C1CNC(=O)c1snc(N)c1Cl (centres unmarked) [I-083] | 3.54[a]
42 | COc1ccc(CNc2nsc(C(=O)NCC3=CCCCC3)c2Cl)cc1 [I-084] | 4.02[a]
43 | Nc1nsc(C(=O)NCC2CC=CCC2)c1Cl (centres unmarked) [I-085] | 2.14[a]
44 | CC1(CNC(=O)c2snc(N)c2Cl)CCCCC1 [I-086] | 2.84[a]
45 | COc1ccc(CN(C)c2nsc(C(=O)N[C@@H](C)C3CCCCC3)c2Cl)cc1 [I-087] | 5.51[a]
46 | Nc1nsc(C(=O)NCC2=CCCCC2)c1Cl [I-089] | 2.30[a]
47 | C[C@H](NC(=O)c1snc(NC(=O)C2CC2)c1Cl)C1CCCCC1 [I-090] | 2.99[a]
48 | CC(=O)Nc1nsc(C(=O)N[C@@H](C)C2CCCCC2)c1Cl [I-097] | 2.51[a]
49 | COc1ccc(CNc2nsc(C(=O)NCC3CCCCC3)c2Cl)cc1 [I-098] | 4.20[a]
50 | COc1ccc(CNC(=O)c2cc(N)ns2)cn1 [I-099] | 0.86[a]
51 | COc1ccc(CNC(=O)c2snc(NCc3ccc(OC)cc3)c2Cl)cc1 [I-102] | 3.46[a]
52 | C[C@H](NC(=O)c1snc(N(S(C)(=O)=O)S(C)(=O)=O)c1Cl)C1CCCCC1 [I-103] | 3.76[a]
53 | COc1ccc(CNc2nsc(C(=O)NCC3(O)CCCCC3)c2Cl)cc1 [I-105] | 3.09[a]
54 | COc1ccc(CNc2nsc(C(=O)NCC3CCCC(C(F)(F)F)C3)c2Cl)cc1 (centres unmarked) [I-106] | 4.33[a]
55 | COc1ccc(CNc2nsc(C(=O)NCC3CCC(C(F)(F)F)CC3)c2Cl)cc1 (centres unmarked) [I-107] | 4.30[a]
56 | COC(=O)Nc1nsc(C(=O)N[C@@H](C)C2CCCCC2)c1Cl [I-108] | 2.84[a]
57 | CCC(=O)Nc1nsc(C(=O)NCC2CCCCC2)c1Cl [I-109] | 2.50[a]
58 | COc1ccc(CNc2nsc(C(=O)NC3CCc4ccccc43)c2Cl)cc1 (centres unmarked) [I-111] | 4.04[a]
59 | COc1ccc(CNc2nsc(C(=O)NC(C)c3ccccc3Cl)c2Cl)cc1 (centres unmarked) [I-112] | 4.16[a]

Further lines, results first:

Row | LogP | Structure (SMILES)
60 | 1.69[a] | Nc1nsc(C(=O)NCc2ccccc2)c1Cl [I-004]
61 | 2.12[a] | Nc1nsc(C(=O)NCc2ccccc2Cl)c1Cl [I-009]
62 | 1.88[a] | Nc1nsc(C(=O)NCc2cc(F)ccc2F)c1Cl [I-015]
63 | 2.62[a] | Nc1nsc(C(=O)NCc2ccc(Cl)cc2Cl)c1Cl [I-018]
64 | 2.49[a] | Nc1nsc(C(=O)NCc2cccc(Cl)c2Cl)c1Cl [I-019]
65 | 2.16[a] | Nc1nsc(C(=O)NCc2ccc(Cl)cc2)c1Cl [I-020]
66 | 2.15[a] | Nc1nsc(C(=O)NCc2cccc(Cl)c2)c1Cl [I-021]
67 | 1.75[a] | COc1cccc(CNC(=O)c2snc(N)c2Cl)c1 [I-022]
68 | 2.02[a] | Nc1nsc(C(=O)NC2(c3ccc(F)cc3)CC2)c1Cl [I-023]
69 | 2.11[a] | Nc1nsc(C(=O)NCc2cc(F)cc(F)c2)c1Cl [I-024]
70 | 1.83[a] | Nc1nsc(C(=O)NCc2ccc(F)cc2)c1Cl [I-025]
71 | 1.84[a] | Nc1nsc(C(=O)NCc2cccc(F)c2)c1Cl [I-026]
72 | 2.63[a] | Nc1nsc(C(=O)NCc2cc(Cl)cc(Cl)c2)c1Cl [I-027]
73 | 1.49[a] | Nc1cc(C(=O)NCc2cc(F)ccc2F)sn1 [I-030]
74 | 1.56[a] | Nc1cc(C(=O)NCc2ccc(F)cc2F)sn1 [I-031]
75 | 0.59[a] | Cn1cc(CNC(=O)c2snc(N)c2Cl)cn1 [I-033]
76 | 0.76[a] | Cc1nn(C)cc1CNC(=O)c1snc(N)c1Cl [I-034]
77 | 1.22[a] | Nc1nsc(C(=O)NCc2cccnc2Cl)c1Cl [I-036]
78 | 0.92[a] | Nc1nsc(C(=O)NCc2cncc(F)c2)c1Cl [I-037]
79 | 1.04[a] | Nc1nsc(C(=O)NCc2ccnc(F)c2)c1Cl [I-038]
80 | 0.83[a] | Cc1ccnc(CNC(=O)c2snc(N)c2Cl)n1 [I-039]

Row | LogP | Structure (SMILES)
81 | 1.64[a] | Cc1c(N)nsc1C(=O)NCc1ccc(F)cc1F [I-041]
82 | 3.46[a] | COc1ccc(CNc2nsc(C(=O)NCc3ccccc3F)c2Cl)cc1 [I-043]
83 | 5.35[a] | CC(C)(NC(=O)c1snc(NCc2ccccc2)c1Cl)C1CCCCC1 [I-048]
84 | 1.42[a] | COc1ccc(CNC(=O)c2snc(N)c2C)cc1 [I-049]
85 | 1.52[a] | Cc1c(N)nsc1C(=O)NCc1ccc(F)cc1 [I-050]
86 | 1.86[a] | Cc1c(N)nsc1C(=O)NCc1ccc(Cl)cc1 [I-051]
87 | 2.66[a] | O=C(NCc1ccccc1F)c1snc(NC2CC2)c1Cl [I-057]
88 | 2.54[a] | C#CCNc1nsc(C(=O)NCc2ccccc2F)c1Cl [I-058]
89 | 3.68[a] | O=C(NCc1ccccc1F)c1snc(Nc2ccc(F)cc2)c1Cl [I-059]
90 | 3.46[a] | COc1ccc(Nc2nsc(C(=O)NCc3ccccc3F)c2Cl)cc1 [I-060]
91 | 3.63[a] | O=C(NCc1ccccc1F)c1snc(Nc2ccccc2)c1Cl [I-067]
92 | 3.56[a] | O=C(NCc1ccccc1F)c1snc(NCc2ccccc2)c1Cl [I-069]
93 | 2.89[a] | C=CCNc1nsc(C(=O)NCc2ccccc2F)c1Cl [I-071]
94 | 4.21[a] | COc1ccc(CN(C)c2nsc(C(=O)NCc3ccccc3F)c2Cl)cc1 [I-088]
95 | 3.64[a] | C[C@H](NC(=O)c1snc(NC(=O)c2ccccc2)c1Cl)C1CCCCC1 [I-091]
96 | 2.12[a] | O=C(NCc1ccccc1F)c1snc(NC(=O)C2CC2)c1Cl [I-093]
97 | 3.73[a] | CC(=O)N(C(C)=O)c1nsc(C(=O)N[C@@H](C)C2CCCCC2)c1Cl [I-094]
98 | 1.70[a] | CC(=O)Nc1nsc(C(=O)NCc2ccccc2F)c1Cl [I-100]
99 | 2.64[a] | CC(=O)N(C(C)=O)c1nsc(C(=O)NCc2ccccc2F)c1Cl [I-101]
100 | 2.18[a] | Cc1c(N)nsc1C(=O)NCc1ccc(C(F)(F)F)cc1F [I-104]
101 | 1.09[a] | Cc1c(N)nsc1C(=O)NCc1ccc(Cl)nc1 [I-110]
